Assay results reported in patent publication US20260374766A1, “METHODS FOR TREATING CANCER” (Antares Therapeutics, Inc., priority 2022, published 2026).
Like-named read-outs stand apart in the source and are kept apart here. Values belong to the compound of their own block, whether it stands above or below them.

Key:
[1] = tested on: NUGC3 p53 Y220C; assay: Cell Proliferation Assay (CellTiter-Glo, CTG), NUGC3 p53 Y220C; assay type: cell-based; conditions: Homo sapiens, NUGC-3, 120 h, CellTiter-Glo, NUGC3 p53 Y220C, 5 days
In short: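 Tet-One inducible p53 Y220C or R273H constructs were stably introduced into NCI-H1299 by lentiviral transduction; NUGC3 was used as is. Cells (250-500 per well) were exposed to compound for 5 days, then CellTiter-Glo was added for 10 min at room temperature and IC50 was calculated from luminescence.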

[2] = tested on: H1299 p53 Y220C; assay: Cell Proliferation Assay (CellTiter-Glo, CTG), H1299 p53 Y220C (NClH1299-inducible p53 Y220C); assay type: cell-based; conditions: Homo sapiens, NCI-H1299, 120 h, CellTiter-Glo, H1299 p53 Y220C, 5 days
In short: (§1)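 NClH1299 lines stably transduced with Tet-inducible p53 Y220C or R273H, plus NUGC3, were treated with compound for 5 days at 250-500 cells/well. IC50 derived from CellTiter-Glo luminescent signal after 10 min room-temperature incubation.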

[3] = target: p53 Y220C (Homo sapiens, UniProt P04637, Y220C); assay: Luciferase Reporter Assay (Luc), p53 response element, NClH1299 cells with inducible p53 Y220C; assay type: cell-based; conditions: luciferase reporter, NClH1299 inducible p53 Y220C, 6 hour; for Emax: 10 uM tool compound as positive control; for AC50: read-out: Luc P53 Y220C AC50
In short: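 Luciferase activity is measured directly after One-Glo addition and a 5-minute room-temperature shake. Before that, cells plated at 5,000 per well receive doxycycline at 0.5 ug/mL for 24 hours, followed by compound for 6 hours.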

[4] = target: T1, p53 Y220C mutant protein (amino acid residues 94-293) (Homo sapiens, UniProt P04637, Y220C); assay: Surface Plasmon Resonance (SPR) assay, Kd_kinetic; assay type: binding; conditions: read-out: SPR P53 Y220C KD kinetic
T1 construct: p53 Y220C mutant protein (amino acid residues 94-293)
In short: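 Biacore 8K SPR; 16 or 20 °C; Tris 50 mM pH 7.5, NaCl 100 mM, DTT 1 mM, Brij35 0.01%, Tween-20 0.05%, DMSO 1%. Kd_kinetic by 1:1 fit.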

[5] = target: T1, p53 Y220C mutant protein (amino acid residues 94-293); assay: Thermal Shift Assay (TSA), dTM; assay type: binding; conditions: thermal shift; for ΔTm at 100 µM: 100 uM compound, read-out: TSA P53 Y220C dTM (100 uM); for ΔTm at 10 µM: 10 uM compound, read-out: TSA P53 Y220C dTM (10 uM)
In short: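 First, the mutant DNA-binding domain (5 μM) was preincubated 3 hours at 20 °C with compound at 10 μM or 100 μM. Next, the sample was heated from 30 °C to 50 °C at 0.03 °C/second in the presence of Sypro Orange. Finally, TM was obtained from a two-state Boltzmann fit.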

[6] = tested on: H1299 p53 R273H; assay: Cell Proliferation Assay (CellTiter-Glo, CTG), H1299 p53 R273H (NClH1299-inducible p53 R273H); assay type: cell-based; conditions: Homo sapiens, NCI-H1299, 120 h, CellTiter-Glo, H1299 p53 R273H, 5 days
In short: as §1

SMILES: CNC(=O)N1CCC(Nc2cccn3c(CC(F)(F)F)c(C#CCNc4ccc(S(C)(=O)=O)cc4OC)nc23)CC1 [Example 117, 4-[(2-{3-[(4-methanesulfonyl-2-methoxyphenyl)amino]prop-1-yn-1-yl}-3-(2,2,2-trifluoroethyl)imidazo[1,2-a]pyridin-8-yl)amino]-N-methylpiperidine-1-carboxamide]
IC50 [1]: > 3000 nM
IC50 [2]: > 3000 nM
Emax [3]: 70 to 80%
AC50 [3]: > 3000 nM
Kd ([4]; SPR, kinetic KD, p53 Y220C): 10 to 100 nM
ΔTm at 100 µM [5]: 5 to 10 °C
IC50 [6]: ≥ 10000 nM

SMILES: CNC(=O)c1ccc(NCC#Cc2nn3c(N[C@@H]4CCN(C)C[C@@H]4F)cccc3c2CC(F)(F)F)c(OC)c1 [Example 118]
IC50 [1]: 1500 to 3000 nM
IC50 [2]: 1500 to 3000 nM
Emax [3]: 70 to 80%
AC50 [3]: 1500 to 3000 nM
Kd ([4]; SPR, kinetic KD, p53 Y220C): 10 to 100 nM
ΔTm at 100 µM [5]: 5 to 10 °C
IC50 [6]: ≥ 10000 nM

SMILES: COc1cc(C(=O)N2CCOCC2)ccc1NCC#Cc1nc2c(N[C@@H]3CCN(C)C[C@@H]3F)cccn2c1SC(F)(F)F [Example 119]
IC50 [1]: < 750 nM
IC50 [2]: < 750 nM
Emax [3]: 80 to 90%
AC50 [3]: < 750 nM
Kd [4]: < 10 nM
ΔTm at 10 µM [5]: ≥ 10 °C
ΔTm at 100 µM [5]: ≥ 10 °C
IC50 [6]: ≥ 10000 nM

SMILES: CNC(=O)c1cc(OC)c(NCC#Cc2nc3c(N[C@@H]4CCN(C)C[C@@H]4F)cccn3c2SC(F)(F)F)cc1Cl [Example 121]
IC50 [1]: < 750 nM
IC50 [2]: < 750 nM
Emax [3]: > 90%
AC50 [3]: < 750 nM
Kd ([4]; SPR, kinetic KD, p53 Y220C): < 10 nM
ΔTm at 10 µM [5]: ≥ 10 °C
ΔTm at 100 µM [5]: ≥ 10 °C
IC50 [6]: 8000 to 10000 nM

SMILES: CNC(=O)c1ccc(NCC#Cc2nc3c(N[C@@H]4C[C@H]5CC[C@@H]([C@@H]4F)N5C)cccn3c2SC(F)(F)F)c(OC)c1 [Example 122]
IC50 [1]: < 750 nM
IC50 [2]: < 750 nM
Emax [3]: 80 to 90%
AC50 [3]: < 750 nM
Kd ([4]; SPR, kinetic KD, p53 Y220C): < 10 nM
ΔTm at 10 µM [5]: ≥ 10 °C
ΔTm at 100 µM [5]: ≥ 10 °C
IC50 [6]: 5000 to 8000 nM

SMILES: CNC(=O)c1ccc(O)c(NCC#Cc2cc3c(N[C@@H]4CCN(C)C[C@@H]4F)nccn3c2SC(F)(F)F)c1 [Example 123]
IC50 [1]: < 750 nM
IC50 [2]: < 750 nM
Emax [3]: > 90%
AC50 [3]: < 750 nM
Kd ([4]; SPR, kinetic KD, p53 Y220C): < 10 nM
ΔTm at 10 µM [5]: ≥ 10 °C
IC50 [6]: ≥ 10000 nM

SMILES: CNC(=O)c1ccc(OC)c(NCC#Cc2cc3c(N[C@@H]4CCN(C)C[C@@H]4F)cccn3c2SC(F)(F)F)c1 [Example 124, 3-{[3-(8-{[(3S,4R)-3-fluoro-1-methylpiperidin-4-yl]amino}-3-[(trifluoromethyl)sulfanyl]indolizin-2-yl)prop-2-yn-1-yl]amino}-4-methoxy-N-methylbenzamide]
IC50 [1]: < 750 nM
IC50 [2]: < 750 nM
Emax [3]: > 90%
AC50 [3]: < 750 nM
Kd ([4]; SPR, kinetic KD, p53 Y220C): < 10 nM
ΔTm at 10 µM [5]: ≥ 10 °C
IC50 [6]: 5000 to 8000 nM

SMILES: CNC(=O)c1ccc(OC)c(NCC#Cc2cc3c(N[C@@H]4CCNC[C@@H]4F)cccn3c2SC(F)(F)F)c1 [Example 125, 3-{[3-(8-{[(3S,4R)-3-fluoropiperidin-4-yl]amino}-3-[(trifluoromethyl)sulfanyl]indolizin-2-yl)prop-2-yn-1-yl]amino}-4-methoxy-N-methylbenzamide]
IC50 [1]: < 750 nM
IC50 [2]: < 750 nM
Emax [3]: > 90%
AC50 [3]: < 750 nM
Kd ([4]; SPR, kinetic KD, p53 Y220C): < 10 nM
ΔTm at 10 µM [5]: ≥ 10 °C
IC50 [6]: 5000 to 8000 nM

Further lines, with some results ahead:

IC50 [2]: < 750 nM
Emax [3]: > 90%
AC50 [3]: < 750 nM
Kd ([4]; SPR, kinetic KD, p53 Y220C): < 10 nM
ΔTm at 10 µM [5]: ≥ 10 °C
IC50 [6]: 8000 to 10000 nM
SMILES: CNC(=O)c1ccc(NCC#Cc2cc3c(N[C@@H]4CCN(C)C[C@@H]4F)cccn3c2SC(F)(F)F)c(OC)c1 [Example 126, 4-{[3-(8-{[(3S,4R)-3-fluoro-1-methylpiperidin-4-yl]amino}-3-[(trifluoromethyl)sulfanyl]indolizin-2-yl)prop-2-yn-1-yl]amino}-3-methoxy-N-methylbenzamide]
IC50 [1]: < 750 nM

IC50 [2]: < 750 nM
Emax [3]: 80 to 90%
AC50 [3]: < 750 nM
Kd ([4]; SPR, kinetic KD, p53 Y220C): < 10 nM
ΔTm at 10 µM [5]: ≥ 10 °C
ΔTm at 100 µM [5]: ≥ 10 °C
IC50 [6]: 8000 to 10000 nM
SMILES: CCOc1cc(C(=O)NC)ccc1NCC#Cc1nc2c(N[C@@H]3CCN(C)C[C@@H]3F)cccn2c1SC(F)(F)F [Example 127]
IC50 [1]: < 750 nM

IC50 [2]: 750 to 1500 nM
Emax [3]: 80 to 90%
AC50 [3]: < 750 nM
Kd ([4]; SPR, kinetic KD, p53 Y220C): < 10 nM
ΔTm at 10 µM [5]: ≥ 10 °C
ΔTm at 100 µM [5]: ≥ 10 °C
IC50 [6]: < 5000 nM
SMILES: COc1cc2n[nH]cc2cc1NCC#Cc1nc2c(N[C@@H]3CCN(C)C[C@@H]3F)cccn2c1SC(F)(F)F [Example 128]
IC50 [1]: 750 to 1500 nM

IC50 [2]: < 750 nM
Emax [3]: 80 to 90%
AC50 [3]: < 750 nM
Kd ([4]; SPR, kinetic KD, p53 Y220C): < 10 nM
ΔTm at 10 µM [5]: ≥ 10 °C
ΔTm at 100 µM [5]: ≥ 10 °C
IC50 [6]: 5000 to 8000 nM
SMILES: CNC(=O)c1ccc(NCC#Cc2nc3c(NC4CCN(C)CC4)cccn3c2SC(F)(F)F)c(OC)c1 [Example 129]
IC50 [1]: < 750 nM

IC50 [2]: < 750 nM
Emax [3]: 70 to 80%
AC50 [3]: < 750 nM
Kd ([4]; SPR, kinetic KD, p53 Y220C): < 10 nM
ΔTm at 10 µM [5]: ≥ 10 °C
ΔTm at 100 µM [5]: ≥ 10 °C
IC50 [6]: 5000 to 8000 nM
SMILES: CNC(=O)c1ccc(NCC#Cc2nc3c(N[C@H]4C[C@@H]5CC[C@H]([C@H]4F)N5C)cccn3c2SC(F)(F)F)c(OC)c1 [Example 130]
IC50 [1]: < 750 nM

IC50 [2]: < 750 nM
Emax [3]: 70 to 80%
AC50 [3]: < 750 nM
Kd ([4]; SPR, kinetic KD, p53 Y220C): < 10 nM
ΔTm at 10 µM [5]: ≥ 10 °C
ΔTm at 100 µM [5]: ≥ 10 °C
IC50 [6]: 5000 to 8000 nM
SMILES: COc1cc(S(C)(=O)=O)ccc1NCC#Cc1nc2c(N[C@@H]3C[C@H]4CC[C@H](N4)[C@@H]3F)cccn2c1SC(F)(F)F [Example 131]
IC50 [1]: < 750 nM

IC50 [2]: < 750 nM
Emax [3]: > 90%
AC50 [3]: < 750 nM
Kd ([4]; SPR, kinetic KD, p53 Y220C): < 10 nM
ΔTm at 10 µM [5]: ≥ 10 °C
IC50 [6]: 8000 to 10000 nM
SMILES: CNC(=O)c1ccc(NCC#Cc2cc3c(N[C@@H]4CCN(C)C[C@@H]4F)cccn3c2SC(F)F)c(OC)c1 [Example 135, 4-[(3-{3-[(difluoromethyl)sulfanyl]-8-{[(3S,4R)-3-fluoro-1-methylpiperidin-4-yl]amino}indolizin-2-yl}prop-2-yn-1-yl)amino]-3-methoxy-N-methylbenzamide]
IC50 [1]: < 750 nM

IC50 [2]: > 3000 nM
Emax [3]: 70 to 80%
AC50 [3]: 1500 to 3000 nM
Kd ([4]; SPR, kinetic KD, p53 Y220C): < 10 nM
ΔTm at 10 µM [5]: 5 to 10 °C
ΔTm at 100 µM [5]: ≥ 10 °C
IC50 [6]: 8000 to 10000 nM
SMILES: CNC(=O)c1cnc(NCC#Cc2nc3c(N[C@@H]4CCN(C)C[C@@H]4F)cccn3c2SC(F)(F)F)c(OC)c1 [Example 136]
IC50 [1]: > 3000 nM

IC50 [2]: < 750 nM
Emax [3]: 80 to 90%
AC50 [3]: < 750 nM
Kd ([4]; SPR, kinetic KD, p53 Y220C): < 10 nM
ΔTm at 10 µM [5]: ≥ 10 °C
ΔTm at 100 µM [5]: ≥ 10 °C
IC50 [6]: 8000 to 10000 nM
SMILES: COc1ccc(C(N)=O)cc1NCC#Cc1nc2c(N[C@@H]3CCN(C)C[C@@H]3F)cccn2c1SC(F)(F)F [Example 138]
IC50 [1]: < 750 nM

IC50 [2]: < 750 nM
Emax [3]: > 90%
AC50 [3]: < 750 nM
Kd ([4]; SPR, kinetic KD, p53 Y220C): < 10 nM
ΔTm at 10 µM [5]: ≥ 10 °C
IC50 [6]: 5000 to 8000 nM
SMILES: CNC(=O)c1ccc(NCC#Cc2cn3c(N[C@@H]4CCN(C)C[C@@H]4F)cccc3c2SC(F)(F)F)c(OC)c1 [Example 139, 4-{[3-(5-{[(3S,4R)-3-fluoro-1-methylpiperidin-4-yl]amino}-1-[(trifluoromethyl)sulfanyl]indolizin-2-yl)prop-2-yn-1-yl]amino}-3-methoxy-N-methylbenzamide]
IC50 [1]: < 750 nM
